Measurements from ChEMBL document CHEMBL3425465, “Synthesis, antimalarial and antitubercular activities of meridianin derivatives” (Eur J Med Chem, 2015).
≈ marks a conversion by molar mass, not a printed value.

Tests used:
[1] = test system: Mycobacterium tuberculosis; test: Antitubercular activity against Mycobacterium tuberculosis H37Rv assessed as […] inhibition after 7 days by broth microdilution assay; assay type: functional; conditions: 168 h
Plasmodium falciparum [2] = test: Antiplasmodial activity against Plasmodium falciparum D6 infected in human RBC assessed as parasite growth inhibition measured as LDH activity after 72 hrs by plate reader analysis; assay type: functional, organism-based
[3] = Retention time of the compound by HPLC analysis; assay type: physicochemical
Plasmodium falciparum [4] = test: Antiplasmodial activity against Plasmodium falciparum W2 infected in human RBC assessed as parasite growth inhibition measured as LDH activity after 72 hrs by plate reader analysis; assay type: functional, organism-based

| Structure (SMILES) | MIC90 [1] [µM] | IC50 (Plasmodium falciparum [2]) | Retention_time [3] [min] | IC50 (Plasmodium falciparum [4]) |
| --- | --- | --- | --- | --- |
| CN1CCN(C(=O)n2cc(-c3ccnc(N)n3)c3cc(Br)ccc32)CC1 | 155 (≈ 64.2 µg/mL) |  |  |  |
| Nc1nccc(-c2cn(C(=O)c3ccccc3)c3ccc(Br)cc23)n1 | 163 (≈ 64 µg/mL) |  |  |  |
| Cc1noc(C)c1Cn1cc(-c2ccnc(N)n2)c2ccccc21 | 201 (≈ 64.1 µg/mL) |  |  |  |
| Cc1noc(C)c1Cn1cc(-c2ccnc(N)n2)c2cc(Br)ccc21 | 80.6 (≈ 32.1 µg/mL) |  |  |  |
| Nc1nccc(-c2cn(Cc3ccc(Cl)s3)c3ccc(Br)cc23)n1 | 76.6 (≈ 32.2 µg/mL) |  |  |  |
| COCCn1cc(-c2ccnc(N)n2)c2cc(Br)ccc21 | 92.2 (≈ 32 µg/mL) |  |  |  |
| O=C1NC(c2c[nH]c3ccc(Br)cc23)Nc2ccccc21 (centres undefined) | 23.4 (≈ 8.01 µg/mL) |  |  |  |
| COc1ccc(S(=O)(=O)n2cc(-c3ccnc(N)n3)c3ccccc32)cc1 |  | Not Active | 8.49 | Not Active |
| COc1ccc(S(=O)(=O)n2cc(-c3ccnc(N)n3)c3cc(Br)ccc32)cc1 |  | Not Active | 8.08 | Not Active |
| CC(C)(C)c1ccc(S(=O)(=O)n2cc(-c3ccnc(N)n3)c3ccccc32)cc1 |  | Not Active | 9.09 | Not Active |
| Cc1cc(C)c(S(=O)(=O)n2cc(-c3ccnc(N)n3)c3ccccc32)c(C)c1 |  | Not Active | 8.95 | Not Active |
| Cc1c(C)c(C)c(S(=O)(=O)n2cc(-c3ccnc(N)n3)c3ccccc32)c(C)c1C |  |  | 10 |  |
| Cc1c(C)c(C)c(S(=O)(=O)n2cc(-c3ccnc(N)n3)c3cc(Br)ccc32)c(C)c1C |  |  | 13.88 |  |
| Nc1nccc(-c2cn(S(=O)(=O)c3ccc([N+](=O)[O-])cc3)c3ccccc23)n1 |  |  | 7.43 |  |
| Nc1nccc(-c2cn(S(=O)(=O)c3ccc(C(F)(F)F)cc3)c3ccccc23)n1 |  | Not Active | 9.15 | Not Active |
| Nc1nccc(-c2cn(S(=O)(=O)c3cc(C(F)(F)F)cc(C(F)(F)F)c3)c3ccccc23)n1 |  | Not Active | 7.87 | Not Active |
| Nc1nccc(-c2cn(S(=O)(=O)c3cc(C(F)(F)F)cc(C(F)(F)F)c3)c3ccc(Br)cc23)n1 |  | Not Active | 10.48 | Not Active |
| Nc1nccc(-c2cn(S(=O)(=O)c3ccc4c(c3)OCCO4)c3ccccc23)n1 |  | Not Active | 8.02 | Not Active |
| Nc1nccc(-c2cn(S(=O)(=O)c3ccc4c(c3)OCCO4)c3ccc(Br)cc23)n1 |  | Not Active | 8 | Not Active |
| Nc1nccc(-c2cn(S(=O)(=O)c3ccc(F)cc3F)c3ccccc23)n1 |  | Not Active | 7.32 | Not Active |
| Nc1nccc(-c2cn(S(=O)(=O)c3ccc4ccccc4c3)c3ccccc23)n1 |  | Not Active | 8.31 | Not Active |
| COc1ccc(S(=O)(=O)n2cc(-c3ccnc(N)n3)c3ccccc32)cc1OC |  | Not Active | 6.92 | Not Active |
| Nc1nccc(-c2cn(S(=O)(=O)c3ccc(Cl)cc3Cl)c3ccccc23)n1 |  | Not Active | 9.08 | Not Active |
| Nc1nccc(-c2cn(S(=O)(=O)c3ccc(Br)cc3)c3ccccc23)n1 |  | Not Active | 8.45 | Not Active |
| COc1ccc(Br)cc1S(=O)(=O)n1cc(-c2ccnc(N)n2)c2ccccc21 |  | Not Active | 8.38 | Not Active |
| Nc1nccc(-c2cn(S(=O)(=O)c3ccc(I)cc3)c3ccccc23)n1 |  | Not Active | 8.8 | Not Active |
| O=C1NC(c2c[nH]c3ccc(I)cc23)Nc2ccccc21 (centres undefined) | 5.2 (≈ 2.02 µg/mL) |  |  |  |
